Data as given in patent US5712253A, “Macrocyclic 13-membered ring derivatives of erythromycins A and B” (Abbott Laboratories, priority 1996, dated 1998).
Values after ≈ are worked out from the molar mass of the structure shown. Like-named read-outs stand apart in the source and are kept apart here.

How the values were obtained:
[1] = system: Escherichia coli SS; assay: Antibacterial activity (agar dilution method), MIC; assay type: cell-based; conditions: unit assumed
Procedure: (§1) Compounds of the invention were next tested for antibacterial potency, such activity being regarded as an undesirable side effect of motilin […] therapy. Assays were conducted using methodology well-known in the art (the agar dilution method).

[2] = system: Streptococcus aureus A5177; assay: Antibacterial activity (agar dilution method), MIC; assay type: cell-based; conditions: unit assumed
Procedure: as §1

[3] = system: Streptococcus pyogenes EES61; assay: Antibacterial activity (agar dilution method), MIC; assay type: cell-based; conditions: unit assumed
Procedure: as §1

[4] = system: Streptococcus aureus ATCC 7538P; assay: Antibacterial activity (agar dilution method), MIC; assay type: cell-based; conditions: unit assumed
Procedure: as §1

[5] = system: Pseudomonas eruginosa K799/WT; assay: Antibacterial activity (agar dilution method), MIC; assay type: cell-based; conditions: unit assumed
Procedure: as §1

[6] = system: Streptococcus bovis ATCC 8043; assay: Antibacterial activity (agar dilution method), MIC; assay type: cell-based; conditions: unit assumed
Procedure: as §1

[7] = molecular target: T1, motilin receptors (Oryctolagus cuniculus, UniProt G1T803); assay: Motilin receptor binding activity ([^125 I]-motilin displacement, rabbit antral smooth muscle)
T1 construct: Motilin receptors were isolated from rabbit antral smooth muscle tissue; from tissue; host or cells: rabbit antral smooth muscle tissue
Description: This ability of the compounds to bind strongly to motilin receptors and the effective absence of elicitation of contractile activity by estimated therapeutic concentration of these compounds in rabbit duodenal smooth muscle together constitute motilin antagonist activity of the compounds.

[8] = system: rabbit duodenal smooth muscle; assay: In vitro prokinetic activity: contraction of smooth muscle strips isolated from rabbit small intestine (duodenum); assay type: cell-based
Procedure: The compounds of the present invention were tested in vitro for their ability to induce contraction of smooth muscle strips isolated from rabbit small intestine using the following procedure:
Rabbits were sacrificed and 15 cm of duodenum was rapidly removed and placed in ice-cold modified Ringers solution (120 mM sodium chloride, 25 mM sodium bicarbonate, 4.7 mM potassium chloride, 1.25 mM calcium chloride, 1.20 mM magnesium sulfate and 5.6 mM glucose). The longitudinal muscle layer was separated from the circular muscle by blunt dissection and cut into strips of 10×20 mm. Double-folded strips were vertically suspended between two hooks in 10 mL tissue baths with a mechanical preload of 1 g. The upper hook was connected to an […] force transducer, and its displacement was recorded on a Grass polygraph. The tissue baths contained modified Ringers solution at 37° C. and were continuously gassed with 95% oxygen/5% carbon dioxide in order to maintain the pH at 7.5.
After a stabilization period of at least 60 minutes, a contractility dose-response series was performed by adding increasing final concentrations of methacholine (10^-7 M, 10^-6 M and 10^-5 M) in volumes of 100 μL. The bath solutions were replaced at least three times between doses.
After the methacholine dose-response series was completed, a test compound dose response curve was initiated by the same procedure used for the methacholine dose-response series, with at least five concentrations of test compound within the range of 10^-10 M to 10^-4 M. The tissues were washed repeatedly between doses, and the studies were completed by recording the contractile response to 10^-5 M methacholine to ascertain integrity of the muscle preparation. Contractile responses were expressed as percent of maximal methacholine induced contraction. The concentration of test compound which produces half of the maximal contraction (ED50 value) and the negative logarithm of the ED50 value (pED50) were estimated from the dose-response curves. The pED50 values were compared to motilin, (pED50 : 8.10) a known gastrointestinal prokinetic agent.

T1 sequence (G1T803 1-400): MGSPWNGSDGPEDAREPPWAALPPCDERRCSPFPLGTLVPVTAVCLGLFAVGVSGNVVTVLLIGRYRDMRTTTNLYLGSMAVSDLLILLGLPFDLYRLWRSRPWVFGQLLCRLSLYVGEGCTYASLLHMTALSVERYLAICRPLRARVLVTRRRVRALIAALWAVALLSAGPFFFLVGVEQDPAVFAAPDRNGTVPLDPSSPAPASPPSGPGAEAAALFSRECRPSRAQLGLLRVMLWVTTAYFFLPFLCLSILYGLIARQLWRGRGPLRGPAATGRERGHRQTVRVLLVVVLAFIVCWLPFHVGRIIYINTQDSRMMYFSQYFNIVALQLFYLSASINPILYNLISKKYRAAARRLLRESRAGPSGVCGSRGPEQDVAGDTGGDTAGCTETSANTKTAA

Row | SMILES | MIC [1] | MIC [2] | MIC [3] | MIC [4] | MIC [5] | MIC [6] | motilin receptor binding (in words) ([7]; rabbit antral smooth muscle, [^125 I]-motilin) | Kd ([7]; rabbit antral smooth muscle, [^125 I]-motilin, read-out: pKd, motilin binding (negative logarithm of the concentration displacing 50% of bound [^125 I]-motilin) (converted)) | EC50 ([8]; Oryctolagus cuniculus, rabbit duodenum strips, 37° C., percent of maximal methacholine induced contraction, read-out: pED50 (negative logarithm of the concentration producing half of the maximal contraction) (converted)) | agonism for induction of contractile activity (in words) ([8]; rabbit duodenal smooth muscle) | potency relative to motilin, induction of contractile activity ([8]; rabbit duodenal smooth muscle, pED50 compared to motilin) | Kd [7] | pED50 (negative logarithm of the concentration producing half of the maximal contraction) ([8]; rabbit duodenum strips, 37° C., percent of maximal methacholine induced contraction)
1 | CC[C@H]1OC(=O)[C@H](C)[C@@H](O[C@H]2C[C@@](C)(OC)[C@@H](O)[C@H](C)O2)[C@H](C)[C@@H](O[C@@H]2O[C@H](C)C[C@H](N(C)C)[C@H]2O)[C@](C)(O)C[C@@H](C)C(=O)[C@H](C)[C@@H](O)[C@]1(C)O [Erythromycin] | 0.39 µg/mL (≈ 0.531 µM) | 6.2 µg/mL (≈ 8.45 µM) | 0.05 µg/mL (≈ 0.0681 µM) | 0.2 µg/mL (≈ 0.273 µM) | 0.78 µg/mL (≈ 1.06 µM) | 0.05 µg/mL (≈ 0.0681 µM) |  |  |  |  |  |  | 
2 | CC[C@H]1OC(=O)[C@H](C)[C@@H](O[C@H]2C[C@@](C)(OC)C[C@H](C)O2)[C@H](C)[C@@H](O[C@@H]2O[C@H](C)C[C@H](N(C)CC)[C@H]2O)[C@@]2(C)CC(C)=C(O2)C(C(C)F)[C@H]1C (stereo partly shown) [Example 1, Compound of Formula (I); R=H; R^1 =methyl; R^2 =ethyl; R^3 =H; X=F] | > 100 µg/mL | 50 µg/mL | 25 µg/mL | 50 µg/mL | > 100 µg/mL | 25 µg/mL | binds strongly to motilin receptors | 11.5 nM | > 100000 nM | very weak agonist | more than four orders of magnitude less potent than motilin |  | 
3 | CC[C@H](C)[C@H](NC(=O)[C@@H]1CCCN1C(=O)[C@@H](NC(=O)[C@@H](N)Cc1ccccc1)C(C)C)C(=O)N[C@@H](Cc1ccccc1)C(=O)N[C@H](C(=O)N[C@@H](Cc1ccc(O)cc1)C(=O)NCC(=O)N[C@@H](CCC(=O)O)C(=O)N[C@@H](CC(C)C)C(=O)N[C@@H](CCC(N)=O)C(=O)N[C@@H](CCCNC(=N)N)C(=O)N[C@@H](CCSC)C(=O)N[C@@H](CCC(N)=O)C(=O)N[C@@H](CCC(=O)O)C(=O)N[C@@H](CCCCN)C(=O)N[C@@H](CCC(=O)O)C(=O)N[C@@H](CCCNC(=N)N)C(=O)N[C@@H](CC(N)=O)C(=O)N[C@@H](CCCCN)C(=O)NCC(=O)N[C@@H](CCC(N)=O)C(=O)O)[C@@H](C)O [motilin, reference compound] |  |  |  |  |  |  |  |  |  |  |  | 0.794 nM | 8.10
